Experimental data: PubChem BioAssay AID1963972 (Molecular Pharmacology Branch, DTP, NCI, 2024)
Several values for one entry are separate records, joined by “and”; a condition that tells them apart may be missing. Equal values may be shown once.

Test system: 945468-187-T-J2-PDC spheroids viability
Assay: Anticancer human tumor 945468-187-T-J2-PDC patient-derived rectal carcinoma cell line growth inhibition [PI3K]
Conditions: spheroids with HUVEC and MSC; for viability, T/C: stronger effect = lower value
In short: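 Three cell types, namely tumor cells, endothelial cells and mesenchymal stem cells, formed each spheroid. Combinations with four PI3K inhibitors were screened at clinically achievable concentrations decreasing by half-log, and spheroid viability was recorded.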

[1] = curve of first compound, second compound 0.0316 µM
[2] = curve of first compound, second compound 0.1 µM
[3] = curve of first compound, second compound 0.316 µM
[4] = curve of first compound, second compound 1 µM
[5] = curve of first compound, second compound 3.16 µM
[6] = curve of first compound, second compound 10 µM
[7] = second compound 0.0316 µM, first compound 0.0316 µM
[8] = second compound 0.0316 µM, first compound 0.1 µM
[9] = second compound 0.0316 µM, first compound 0.316 µM
[10] = second compound 0.0316 µM, first compound 1 µM
[11] = second compound 0.0316 µM, first compound 3.16 µM
[12] = second compound 0.0316 µM, first compound 10 µM
[13] = second compound 0.1 µM, first compound 0.0316 µM
[14] = second compound 0.1 µM, first compound 0.1 µM
[15] = second compound 0.1 µM, first compound 0.316 µM
[16] = second compound 0.1 µM, first compound 1 µM
[17] = second compound 0.1 µM, first compound 3.16 µM
[18] = second compound 0.1 µM, first compound 10 µM
[19] = second compound 0.316 µM, first compound 0.0316 µM
[20] = second compound 0.316 µM, first compound 0.1 µM
[21] = second compound 0.316 µM, first compound 0.316 µM
[22] = second compound 0.316 µM, first compound 1 µM
[23] = second compound 0.316 µM, first compound 3.16 µM
[24] = second compound 0.316 µM, first compound 10 µM
[25] = second compound 1 µM, first compound 0.0316 µM
[26] = second compound 1 µM, first compound 0.1 µM
[27] = second compound 1 µM, first compound 0.316 µM
[28] = second compound 1 µM, first compound 1 µM
[29] = second compound 1 µM, first compound 3.16 µM
[30] = second compound 1 µM, first compound 10 µM
[31] = second compound 3.16 µM, first compound 0.0316 µM
[32] = second compound 3.16 µM, first compound 0.1 µM
[33] = second compound 3.16 µM, first compound 0.316 µM
[34] = second compound 3.16 µM, first compound 1 µM
[35] = second compound 3.16 µM, first compound 3.16 µM
[36] = second compound 3.16 µM, first compound 10 µM
[37] = second compound 10 µM, first compound 0.0316 µM
[38] = second compound 10 µM, first compound 0.1 µM
[39] = second compound 10 µM, first compound 0.316 µM
[40] = second compound 10 µM, first compound 1 µM
[41] = second compound 10 µM, first compound 3.16 µM
[42] = second compound 10 µM, first compound 10 µM
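Note: spheroids exposed to compounds for seven days before reading.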

Which results are given for Cn1ncc(Cl)c1-c1cc(C(=O)NC(CN)Cc2cccc(F)c2)sc1Cl (configuration not stated) + CC(Nc1ncnc2nc[nH]c12)c1cc2cccc(Cl)c2c(=O)n1-c1ccccc1?
IC50 [1]: > 10 µM; IC50 [2]: > 10 µM; IC50 [3]: > 10 µM; IC50 [4]: > 10 µM; IC50 [5]: > 10 µM; IC50 [6]: > 10 µM; viability, T/C [7]: 97.5%; viability, T/C [8]: 89.3%; viability, T/C [9]: 96.3%; viability, T/C [10]: 91.5%; viability, T/C [11]: 83.9%; viability, T/C [12]: 59.2%; viability, T/C [13]: 91.1%; viability, T/C [14]: 93.3%; viability, T/C [15]: 129%; viability, T/C [16]: 91.7%; viability, T/C [17]: 93.2%; viability, T/C [18]: 59.8%; viability, T/C [19]: 90.6%; viability, T/C [20]: 122%; viability, T/C [21]: 104%; viability, T/C [22]: 105%; viability, T/C [23]: 84.2%; viability, T/C [24]: 65.5%; viability, T/C [25]: 99%; viability, T/C [26]: 115%; viability, T/C [27]: 106%; viability, T/C [28]: 98.1%; viability, T/C [29]: 77.8%; viability, T/C [30]: 73.3%; viability, T/C [31]: 83.3%; viability, T/C [32]: 103%; viability, T/C [33]: 92.5%; viability, T/C [34]: 71%; viability, T/C [35]: 81.8%; viability, T/C [36]: 61%; viability, T/C [37]: 99.6%; viability, T/C [38]: 99.6%; viability, T/C [39]: 90.6%; viability, T/C [40]: 94.2%; viability, T/C [41]: 74.4%; viability, T/C [42]: 70.1%

How did the viability, T/C (compound 0.0316 µM) turn out when CNC(=O)c1ccc(N2C(=S)N(c3ccc(C#N)c(C(F)(F)F)c3)C(=O)C2(C)C)cc1F was run?
The viability, T/C was 92.1% [middle of 4 runs].

What about the viability, T/C (compound 0.1 µM) of the same molecule?
Its viability, T/C is 106% (2×) and 93.2% and 121%.

And the viability, T/C (compound 0.316 µM)?
The viability, T/C was 89% [middle of 4 runs].

And the viability, T/C (compound 1 µM)?
The viability, T/C was 85.3% [middle of 4 runs].

And the viability, T/C (compound 3.16 µM)?
Its viability, T/C is 91.6% [middle of 4 runs].

And the IC50 (curve of compound)?
Its IC50 is > 10 µM.

What does the source list for Cn1cnc2c(F)c(Nc3ccc(Br)cc3Cl)c(C(=O)NOCCO)cc21 + Cc1nc(NC(=O)N2CCCC2C(N)=O)sc1-c1ccnc(C(C)(C)C(F)(F)F)c1?
IC50 [1]: > 3 µM; IC50 [2]: > 3 µM; IC50 [3]: > 3 µM; IC50 [4]: > 3 µM; IC50 [5]: 2.6 µM; IC50 [6]: 0.895 µM; viability, T/C (second compound 0.0316 µM, first compound 0.00949 µM): 87.9%; viability, T/C (second compound 0.0316 µM, first compound 0.03 µM): 73.6%; viability, T/C (second compound 0.0316 µM, first compound 0.0949 µM): 79.8%; viability, T/C (second compound 0.0316 µM, first compound 0.3 µM): 71.8%; viability, T/C (second compound 0.0316 µM, first compound 0.949 µM): 66.7%; viability, T/C (second compound 0.0316 µM, first compound 3 µM): 62%; viability, T/C (second compound 0.1 µM, first compound 0.00949 µM): 110%; viability, T/C (second compound 0.1 µM, first compound 0.03 µM): 84.5%; viability, T/C (second compound 0.1 µM, first compound 0.0949 µM): 88.9%; viability, T/C (second compound 0.1 µM, first compound 0.3 µM): 77.4%; viability, T/C (second compound 0.1 µM, first compound 0.949 µM): 70.9%; viability, T/C (second compound 0.1 µM, first compound 3 µM): 63.1%; viability, T/C (second compound 0.316 µM, first compound 0.00949 µM): 99%; viability, T/C (second compound 0.316 µM, first compound 0.03 µM): 74.1%; viability, T/C (second compound 0.316 µM, first compound 0.0949 µM): 82.4%; viability, T/C (second compound 0.316 µM, first compound 0.3 µM): 75.1%; viability, T/C (second compound 0.316 µM, first compound 0.949 µM): 68.7%; viability, T/C (second compound 0.316 µM, first compound 3 µM): 69.4%; viability, T/C (second compound 1 µM, first compound 0.00949 µM): 71.7%; viability, T/C (second compound 1 µM, first compound 0.03 µM): 114%; viability, T/C (second compound 1 µM, first compound 0.0949 µM): 80.6%; viability, T/C (second compound 1 µM, first compound 0.3 µM): 76.6%; viability, T/C (second compound 1 µM, first compound 0.949 µM): 66.5%; viability, T/C (second compound 1 µM, first compound 3 µM): 55.6%; viability, T/C (second compound 3.16 µM, first compound 0.00949 µM): 68.6%; viability, T/C (second compound 3.16 µM, first compound 0.03 µM): 78%; viability, T/C (second compound 3.16 µM, first compound 0.0949 µM): 97.3%; viability, T/C (second compound 3.16 µM, first compound 0.3 µM): 67.8%; viability, T/C (second compound 3.16 µM, first compound 0.949 µM): 70.8%; viability, T/C (second compound 3.16 µM, first compound 3 µM): 47.1%; viability, T/C (second compound 10 µM, first compound 0.00949 µM): 77.3%; viability, T/C (second compound 10 µM, first compound 0.03 µM): 68.2%; viability, T/C (second compound 10 µM, first compound 0.0949 µM): 68.8%; viability, T/C (second compound 10 µM, first compound 0.3 µM): 61.2%; viability, T/C (second compound 10 µM, first compound 0.949 µM): 51.8%; viability, T/C (second compound 10 µM, first compound 3 µM): 10.5%

Which IC50 [1] does the source give for C[C@@H](NC(=O)c1ncnc(N)c1Cl)c1ncc(C(=O)Nc2cc(C(F)(F)F)c(Cl)cn2)s1 + CC(Nc1ncnc2nc[nH]c12)c1cc2cccc(Cl)c2c(=O)n1-c1ccccc1 here?
Its IC50 is > 10 µM.

And the IC50 [2]?
The IC50 was > 10 µM.

And the IC50 [3]?
The IC50 was > 10 µM.

And the IC50 [4]?
Its IC50 is > 10 µM.

And the IC50 [5]?
The IC50 was > 10 µM.

What about the IC50 [6] of the same molecule?
Its IC50 is > 10 µM.

What about the viability, T/C [7] of the same molecule?
Its viability, T/C is 83.6%.

And the viability, T/C [8]?
Its viability, T/C is 82.8%.

And the viability, T/C [9]?
Its viability, T/C is 113%.

And the viability, T/C [10]?
Its viability, T/C is 106%.

And the viability, T/C [11]?
The viability, T/C was 109%.

And the viability, T/C [12]?
Its viability, T/C is 86.2%.

And the viability, T/C [13]?
Its viability, T/C is 119%.

And the viability, T/C [14]?
The viability, T/C was 108%.

And the viability, T/C [15]?
Its viability, T/C is 85.5%.

What about the viability, T/C [16] of the same molecule?
Its viability, T/C is 68.7%.

And the viability, T/C [17]?
Its viability, T/C is 121%.

And the viability, T/C [18]?
Its viability, T/C is 104%.

What about the viability, T/C [19] of the same molecule?
The viability, T/C was 119%.

And the viability, T/C [20]?
Its viability, T/C is 90.9%.

And the viability, T/C [21]?
Its viability, T/C is 99.3%.

And the viability, T/C [22]?
The viability, T/C was 92.2%.

What about the viability, T/C [23] of the same molecule?
The viability, T/C was 93.3%.

What about the viability, T/C [24] of the same molecule?
The viability, T/C was 80.7%.

And the viability, T/C [25]?
The viability, T/C was 92.7%.

And the viability, T/C [26]?
Its viability, T/C is 108%.

And the viability, T/C [27]?
Its viability, T/C is 81.3%.

What about the viability, T/C [28] of the same molecule?
The viability, T/C was 95%.

And the viability, T/C [29]?
The viability, T/C was 83.1%.

What about the viability, T/C [30] of the same molecule?
The viability, T/C was 90.1%.

What about the viability, T/C [31] of the same molecule?
The viability, T/C was 103%.

What about the viability, T/C [32] of the same molecule?
Its viability, T/C is 110%.

And the viability, T/C [33]?
Its viability, T/C is 77.7%.

And the viability, T/C [34]?
The viability, T/C was 124%.

What about the viability, T/C [35] of the same molecule?
Its viability, T/C is 110%.

What about the viability, T/C [36] of the same molecule?
The viability, T/C was 104%.

And the viability, T/C [37]?
The viability, T/C was 83%.

And the viability, T/C [38]?
Its viability, T/C is 123%.

What about the viability, T/C [39] of the same molecule?
The viability, T/C was 110%.

What about the viability, T/C [40] of the same molecule?
The viability, T/C was 84.4%.

And the viability, T/C [41]?
The viability, T/C was 119%.

And the viability, T/C [42]?
The viability, T/C was 108%.
